Consider three compounds from patent US5998423A, “Methods for modulating melanin production” (Therasys, Inc., priority 1997, dated 1999).

The subject of assay [1] is Mouse, Cloudman S91 Melanoma Cell line. Briefly: Stimulation of melanin synthesis in cell culture (melanin content, OD 475 nm). It is filed as cell-based. The note with it: result in words; incubation 5-7 days at 37° C.; values only in FIG. 6. The text has this: A Mouse, Cloudman S91 Melanoma Cell line (Clone M-3, ATCC CCL-53.1) was used. The cells were flown as monolayers. These cells multiply 7-8 fold in 7 days and are know to produce melanin in over 50% of the cells up to at least 33 passages. Horse serum, fetal Bovine serum, Penicillin-streptomycin and F-10 nutrient mixture were all obtained from Life Technologies (GIBCO, Grand Island, N.Y.). N^6 -Cyclopentyl-9-methyladenine (N-154) and C-102 (CPT) were obtained from RBI (Natick, Mass.). 1-Oleoyl-2-acetyl-rac-glycerol, activated charcoal, Triton X-100, phenyl methyl sulfonyl fluoride, theophylline, synthetic melanin and L-tyrosine-[Ring-3,5] were all obtained from Sigma Chemical Co. (St. Louis, Mo.). The culture medium used was Ham's F-10. The composition of the medium was as follows: Ham's F-10 Nutrient Mixture (82.5%), horse serum (15.0%), fetal bovine serum (2.5%), penecillin-streptomycin mixture (1.0%).
Cells were incubated with the indicated reagents (see FIG. 6) at 37° C. under 5% CO2 atmosphere for 5-7 days. At the time of harvest, exhausted medium was removed from flasks/wells and cells were treated with 1-5 mL of 0.25% trypsin for 2-3 minutes. […]
The pellet (from above extraction) was dissolved in 0.25 mL of 0.5 N NaOH and the optical density was measured at 475 nm. The melanin content was determined from a standard curve obtained by using a synthetic melanin.

Assay [2] concerns melanoma cell lines. To be noted: cited from earlier work.
Assay [3] has as its system adenylate cyclase. The note with it: through activation of adenylate cyclase, thereby increasing cAMP levels; cited from earlier work.

Consider `Cn1cnc2c(NC3CCCC3)ncnc21` [N^6 -Cyclopentyl-9-methyladenine], for which, in assay [1], the “stimulation of melanin synthesis” value was “stimulation of melanin synthesis”.

`Cn1c(=O)c2[nH]cnc2n(C)c1=O` [Theophylline, theophylline]: the stimulation of melanogenesis entry in assay [2] is reported as “potent stimulator of melanogenesis”.

Take α-MSH: the melanin production result in assay [3] is on record as “increase melanin production”.
